Experimental data published in PMC7926793, “Synthesis and Biological Evaluation of 1-(Diarylmethyl)-1H-1,2,4-triazoles and 1-(Diarylmethyl)-1H-imidazoles as a Novel Class of Anti-Mitotic Agent for Activity in Breast Cancer” (Pharmaceuticals, 2021).
“And” between values parts separate entries of the source, which are not always exact repeats. Equal entries are not always repeated.

Key:
[1] = system: CCRF-CEM; assay: NCI 60 cell line screen (Leukemia); type: cell-based, human; settings: for Growth percentage: single dose 10 µM
[2] = system: SK-MEL-2; assay: NCI 60 cell line screen (Melanoma); type: cell-based, human; settings: for Growth percentage: SK-MEL-2, single dose 10 µM
[3] = target: T1, CYP1A1 (Homo sapiens, UniProt P04798); assay: cytochrome P450 assay (DBF fluorescence)
T1 sequence (P04798 1-512): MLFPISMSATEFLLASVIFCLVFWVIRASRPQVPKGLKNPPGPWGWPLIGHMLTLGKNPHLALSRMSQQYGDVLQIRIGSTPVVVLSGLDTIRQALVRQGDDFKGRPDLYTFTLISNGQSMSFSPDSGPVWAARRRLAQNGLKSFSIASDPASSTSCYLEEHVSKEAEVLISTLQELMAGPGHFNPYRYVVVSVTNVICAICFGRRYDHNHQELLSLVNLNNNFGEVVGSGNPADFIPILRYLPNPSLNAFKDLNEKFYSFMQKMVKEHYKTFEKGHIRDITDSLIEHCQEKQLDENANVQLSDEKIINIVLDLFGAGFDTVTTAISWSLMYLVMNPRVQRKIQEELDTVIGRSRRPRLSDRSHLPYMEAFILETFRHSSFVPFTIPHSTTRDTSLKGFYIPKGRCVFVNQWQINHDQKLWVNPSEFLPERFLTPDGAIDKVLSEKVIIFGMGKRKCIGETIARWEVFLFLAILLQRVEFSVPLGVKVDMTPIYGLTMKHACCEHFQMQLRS

[4] = system: ACHN; assay: NCI 60 cell line screen (Renal Cancer); type: cell-based, human; settings: for Growth percentage: single dose 10 µM
[5] = system: SNB-19; assay: NCI 60 cell line screen (CNS Cancer); type: cell-based, human; settings: for Growth percentage: SNB-19, single dose 10 µM
[6] = system: MCF-7; assay: NCI 60 cell line screen (Breast Cancer); type: cell-based, human; settings: for Growth percentage: MCF-7, single dose 10 µM
[7] = system: A498; assay: NCI 60 cell line screen (Renal Cancer); type: cell-based, human; settings: for Growth percentage: A498, single dose 10 µM
[8] = system: NCI-H332M; assay: NCI 60 cell line screen (Non-Small Cell Lung Cancer); type: cell-based, human; settings: for Growth percentage: single dose 10 µM
[9] = system: UO-31; assay: NCI 60 cell line screen (Renal Cancer); type: cell-based, human; settings: for Growth percentage: UO-31, single dose 10 µM
[10] = system: UACC-257; assay: NCI 60 cell line screen (Melanoma); type: cell-based, human; settings: for Growth percentage: UACC-257, single dose 10 µM
[11] = system: T-47D; assay: NCI 60 cell line screen (Breast Cancer); type: cell-based, human; settings: single dose 10 µM
[12] = system: HS 578T; assay: NCI 60 cell line screen (Breast Cancer); type: cell-based, human; settings: for Growth percentage: single dose 10 µM
[13] = system: U251 (AC in Table 3); assay: NCI 60 cell line screen (CNS Cancer); type: cell-based, human; settings: for Growth percentage: U251, single dose 10 µM
[14] = system: OVCAR-4; assay: NCI 60 cell line screen (Ovarian Cancer); type: cell-based, human; settings: for Growth percentage: OVCAR-4, single dose 10 µM
[15] = system: LOX IMV1; assay: NCI 60 cell line screen (Melanoma); type: cell-based, human; settings: for Growth percentage: LOX IMV1, single dose 10 µM
[16] = system: NCI-H226; assay: NCI 60 cell line screen (Non-Small Cell Lung Cancer); type: cell-based, human; settings: for Growth percentage: NCI-H226, single dose 10 µM
[17] = system: SF-268; assay: NCI 60 cell line screen (CNS Cancer); type: cell-based, human; settings: for Growth percentage: SF-268, single dose 10 µM
[18] = system: SF295; assay: NCI 60 cell line screen (CNS Cancer); type: cell-based, human; settings: for Growth percentage: SF295, single dose 10 µM
[19] = system: MDA-MB-435; assay: NCI 60 cell line screen (Melanoma); type: cell-based, human; settings: for Growth percentage: MDA-MB-435, single dose 10 µM
[20] = system: 786-0; assay: NCI 60 cell line screen (Renal Cancer); type: cell-based, human; settings: for Growth percentage: 786-0, single dose 10 µM
[21] = system: K-562; assay: NCI 60 cell line screen (Leukemia); type: cell-based, human; settings: for Growth percentage: K-562, single dose 10 µM
[22] = system: SN12C; assay: NCI 60 cell line screen (Renal Cancer); type: cell-based, human; settings: for Growth percentage: single dose 10 µM
[23] = system: SR; assay: NCI 60 cell line screen (Leukemia); type: cell-based, human; settings: for Growth percentage: single dose 10 µM
[24] = system: NCI-H460; assay: NCI 60 cell line screen (Non-Small Cell Lung Cancer); type: cell-based, human; settings: for Growth percentage: NCI-H460, single dose 10 µM
[25] = system: RXF 393; assay: NCI 60 cell line screen (Renal Cancer); type: cell-based, human; settings: RXF 393, single dose 10 µM
[26] = system: COLO 205; assay: NCI 60 cell line screen (Colon Cancer); type: cell-based, human; settings: for Growth percentage: COLO 205, single dose 10 µM
[27] = system: SK-MEL-5; assay: NCI 60 cell line screen (Melanoma); type: cell-based, human; settings: for Growth percentage: SK-MEL-5, single dose 10 µM
[28] = system: MOLT-4; assay: NCI 60 cell line screen (Leukemia); type: cell-based, human; settings: for Growth percentage: MOLT-4, single dose 10 µM
[29] = system: TK-10; assay: NCI 60 cell line screen (Renal Cancer); type: cell-based, human; settings: TK-10, single dose 10 µM
[30] = system: HCT-15; assay: NCI 60 cell line screen (Colon Cancer); type: cell-based, human; settings: for Growth percentage: HCT-15, single dose 10 µM
[31] = system: OVCAR-3; assay: NCI 60 cell line screen (Ovarian Cancer); type: cell-based, human; settings: for Growth percentage: OVCAR-3, single dose 10 µM
[32] = system: RPMI-8226; assay: NCI 60 cell line screen (Leukemia); type: cell-based, human; settings: for Growth percentage: RPMI-8226, single dose 10 µM
[33] = system: DU-145; assay: NCI 60 cell line screen (Prostate cancer); type: cell-based, human; settings: for Growth percentage: DU-145, single dose 10 µM
[34] = system: BT-549; assay: NCI 60 cell line screen (Breast Cancer); type: cell-based, human; settings: for Growth percentage: BT-549, single dose 10 µM

Compound: COc1ccc(C(c2cc(OC)c(OC)c(OC)c2)n2ccnc2)cc1O (centres unmarked) [21l, 5-((1H-Imidazol-1-yl)(3,4,5-Trimethoxyphenyl)Methyl)-2-Methoxyphenol]
- GI50 ([1]; Homo sapiens, NCI 5 dose assay): 289 nM
- Growth percentage [1]: 6.97%
- GI50 ([2]; Homo sapiens, SK-MEL-2, NCI 5 dose assay): 324 nM
- Growth percentage [2]: 43.54%
- IC50 ([3]; IC50 CYP1A1): > 54000 nM
- inhibition at 25 min, 20 µg/mL ([3]; human, recombinant CYP1A1, pH 7.4, probe dibenzylfluorescein (DBF), 2.0 μM): 18.4%
- GI50 ([4]; Homo sapiens, NCI 5 dose assay): 693 nM
- Growth percentage [4]: 42.41%
- GI50 ([5]; Homo sapiens, SNB-19, NCI 5 dose assay): 532 nM
- Growth percentage [5]: 30.51%
- GI50 ([6]; Homo sapiens, MCF7, MCF-7, NCI 5 dose assay): 339 nM
- Growth percentage [6]: 18.38%
- Growth percentage [7]: 8.04%
- GI50 ([7]; Homo sapiens, A498, NCI 5 dose assay): 304 nM
- GI50 ([8]; Homo sapiens, NCI 5 dose assay): 789 nM
- Growth percentage [8]: 48.23%
- GI50 ([9]; Homo sapiens, UO-31, NCI 5 dose assay): 883 nM
- Growth percentage [9]: 61.96%
- GI50 ([10]; Homo sapiens, UACC-257, NCI 5 dose assay): 1440 nM
- Growth percentage [10]: 37.75%
- Growth percentage [11]: 42.62%
- GI50 ([12]; Homo sapiens, NCI 5 dose assay): 414 nM
- Growth percentage [12]: 29.10%
- GI50 ([13]; Homo sapiens, U-251, cell line printed AC, NCI 5 dose assay): 391 nM
- Growth percentage [13]: 15.52%
- GI50 ([14]; Homo sapiens, OVCAR-4, NCI 5 dose assay): 3440 nM
- Growth percentage [14]: 73.56%
- GI50 ([15]; Homo sapiens, LOX IMV1, NCI 5 dose assay): 523 nM
- Growth percentage [15]: 25.65%
- GI50 ([16]; Homo sapiens, NCI-H226, NCI 5 dose assay): 640 nM
- Growth percentage [16]: 68.70%
- GI50 ([17]; Homo sapiens, SF-268, NCI 5 dose assay): 731 nM
- Growth percentage [17]: 39.64%
- GI50 ([18]; Homo sapiens, SF-295, SF295, NCI 5 dose assay): 307 nM
- Growth percentage [18]: -3.02%
- GI50 ([19]; Homo sapiens, MDA-MB-435, NCI 5 dose assay): 119 nM
- Growth percentage [19]: -29.47%
- Growth percentage [20]: 19.99%
- GI50 ([20]; Homo sapiens, 786-0, NCI 5 dose assay): 369 nM
- GI50 ([21]; Homo sapiens, K562, K-562, NCI 5 dose assay): 225 nM
- Growth percentage [21]: 8.00%
- GI50 ([22]; Homo sapiens, NCI 5 dose assay): 910 nM
- Growth percentage [22]: 37.55%
- GI50 ([23]; Homo sapiens, NCI 5 dose assay): 182 nM
- Growth percentage [23]: 8.48%
- GI50 ([24]; Homo sapiens, NCI-H460, NCI 5 dose assay): 377 nM
- Growth percentage [24]: 6.11%
- Growth percentage [25]: -5.38%
- Growth percentage [26]: -9.99%
- GI50 ([26]; Homo sapiens, COLO 205, NCI 5 dose assay): 361 nM
- GI50 ([27]; Homo sapiens, SK-MEL-5, NCI 5 dose assay): 367 nM
- Growth percentage [27]: -12.88%
- GI50 ([28]; Homo sapiens, MOLT-4, NCI 5 dose assay): 565 nM
- Growth percentage [28]: 14.01%
- Growth percentage [29]: 52.86%
- Growth percentage [30]: 7.70%
- GI50 ([30]; Homo sapiens, HCT-15, NCI 5 dose assay): 264 nM
- GI50 ([31]; Homo sapiens, OVCAR-3, NCI 5 dose assay): 264 nM
- Growth percentage [31]: -9.52%
- GI50 ([32]; Homo sapiens, RPMI-8226, NCI 5 dose assay): 385 nM
- Growth percentage [32]: 18.86%
- Growth percentage [33]: 12.91%
- GI50 ([33]; Homo sapiens, DU-145, NCI 5 dose assay): 407 nM
- Growth percentage [34]: -0.07%
- GI50 ([34]; Homo sapiens, BT-549, NCI 5 dose assay): 306 nM

Compound: COc1ccc(C(c2cc(OC)c(OC)c(OC)c2)N2CCCCC2)cc1 (centres unmarked) [26b, 1-((4-Methoxyphenyl)(3,4,5-Trimethoxyphenyl)Methyl)Piperidine]
- Growth percentage [1]: 29.91%
- Growth percentage [2]: 22.02%
- Growth percentage [4]: 50.89%
- Growth percentage [5]: 30.43%
- Growth percentage [6]: 23.57%
- Growth percentage [7]: 7.32%
- Growth percentage [8]: 47.90%
- Growth percentage [9]: 48.76%
- Growth percentage [10]: 54.88%
- Growth percentage [11]: 33.59%
- Growth percentage [12]: 16.61% and 16.6%
- Growth percentage [13]: 26.12%
- Growth percentage [14]: 69.25%
- Growth percentage [15]: 36.34%
- Growth percentage [16]: 55.46%
- Growth percentage [17]: 47.22%
- Growth percentage [18]: 18.75%
- Growth percentage [19]: -21.79%
- Growth percentage [20]: 38.84%
- Growth percentage [21]: 18.04%
- Growth percentage [22]: 54.32%
- Growth percentage [23]: 18.46%
- Growth percentage [24]: 19.38%
- Growth percentage [25]: 25.99%
- Growth percentage [26]: 16.14%
- Growth percentage [27]: 29.49%
- Growth percentage [28]: 31.54%
- Growth percentage [29]: 57.56%
- Growth percentage [30]: 20.63%
- Growth percentage [31]: 8.29%
- Growth percentage [32]: 41.20%
- Growth percentage [33]: 64.18%
- Growth percentage [34]: 49.73%
